Reference: patent publication US9012431B2, “Boron-containing small molecules as anti-inflammatory agents” (Anacor Pharmaceuticals, Inc., priority 2008, dated 2015)

Columns and labels:
TNF-α = assay: Cytokine assay, TNF-α release from PBMC; type: cell-based; conditions: 1 μg/mL LPS, supernatant at 24 hours
Method: (§1) The ability of the compounds described herein to inhibit pro-inflammatory cytokines or phsophodiesterases were tested.
(§2) Frozen human peripheral blood mononucleocytes (PBMC) were thawed and centrifuged. Cryopreservation media was aspirated off of the cell pellet, and the cells were resuspended in fresh culture media (CM) comprising RPMI 1640 and 10% FBS in 96 well plates. Test article was dissolved in DMSO to form a 10 mM sample (DMSO, 100%). The 10 mM samples were diluted to 100 μM in CM (DMSO, 1%), then further diluted to 10, 1, 0.1, 0.01 μM in 200 μL of CM (n=3). […] IL-23 was assayed using a commercial ELISA kit (R&D Systems).

IL-5 = assay: Cytokine assay, IL-5 release from PBMC; type: cell-based; conditions: human PBMC, 20 ug/mL PHA, supernatant at 48 hours
Method: as §1, §2

IL-2 = assay: Cytokine assay, IL-2 release from PBMC; type: cell-based; conditions: human PBMC, 20 ug/mL PHA, supernatant at 24 hours
Method: as §1, §2

IL-10 = assay: Cytokine assay, IL-10 release from PBMC; type: cell-based; conditions: human PBMC, 20 ug/mL PHA, supernatant at 48 hours
Method: as §1, §2

[1] = tested on: T1, PDE4 partially purified from human U-937 myeloid leukemia cells; assay: PDE4 Assay (enzyme from U-937 cells, [3H]cAMP); type: biochemical; conditions: PDE4 from U-937 cells, Tris buffer pH 7.5, 20 minutes at 25° C.
T1 construct: PDE4 partially purified from human U-937 myeloid leukemia cells was used
Method: Test article and/or vehicle was incubated with 0.2 mg enzyme and 1 mM cAMP containing 0.01 mM [3H]cAMP in Tris buffer pH 7.5 for 20 minutes at 25° C. The reaction was terminated by boiling for 2 minutes and the resulting AMP is converted to adenosine by addition of 10 mg/ml snake venom nucleotidase and further incubation at 37° C. for 10 minutes. Unhydrolyzed cAMP is bound to AG1-X2 resin, and remaining [3H]Adenosine in the aqueous phase is quantitated by scintillation counting.

IFN-γ = assay: Cytokine assay, IFN-γ release from PBMC; type: cell-based; conditions: human PBMC, 20 ug/mL PHA, supernatant at 24 hours
Method: as §1, §2

Structure (SMILES)	IC50 (TNF-α; Homo sapiens, PBMC, 24 h) [nM]	IC50 (IL-5) [µM]	IC50 (IL-2) [nM]	IC50 (IL-10) [µM]	IC50 [1] [nM]	IC50 (IFN-γ) [nM]	IC50 (TNF-α; human PBMC) [nM]
CCOC(=O)c1cc(Cl)c(Oc2ccc3c(c2)COB3O)cc1F [D58, 5-(2-Chloro-5-fluoro-4-ethoxycarbonylphenoxy)-1-hydroxy-2,1-benzoxaborole]	1000 to 4000	< 1	< 1000	> 10	< 1000	< 1000	–
CCN(CC)C(=O)c1ccc(Oc2ccc3c(c2)COB3O)nc1 [D62, N,N-diethyl-6-(1-hydroxy-1,3-dihydrobenzo[c][1,2]-5-yloxy) nicotinamide]	< 1000	1 to 4	< 1000	1 to 4	1000 to 4000	< 1000	–
CCCOC(=O)c1ccc(Oc2ccc3c(c2)COB3O)nc1 [D66, n-Propyl 6-(1-hydroxy-1,3-dihydrobenzo[c][1,2]oxaborol-5-yloxy)nicotinate]	< 1000	< 1	< 1000	< 1	< 1000	< 1000	–
COC(=O)c1ccc(Oc2ccc3c(c2)COB3O)cc1 [D71, 4-(1-Hydroxy-1,3-dihydro-benzo[c][1,2]oxaborol-5-yloxy)-benzoic acid methyl ester]	1000 to 4000	4 to 10	1000 to 4000	> 10	< 1000	1000 to 4000	–
CCOC(=O)c1ccc(Oc2ccc3c(c2)COB3O)cc1 [D72, 4-(1-Hydroxy-1,3-dihydro-benzo[c][1,2]oxaborol-5-yloxy)-benzoic acid ethyl ester]	1000 to 4000	4 to 10	1000 to 4000	> 10	< 1000	1000 to 4000	–
CC(C)OC(=O)c1ccc(Oc2ccc3c(c2)COB3O)cc1 [D74, 4-(1-Hydroxy-1,3-dihydro-benzo[c][1,2]oxaborol-5-yloxy)-benzoic acid isopropyl ester]	1000 to 4000	1 to 4	< 1000	1 to 4	< 1000	< 1000	–
O=C(NCc1ccccc1)c1ccc(Oc2ccc3c(c2)COB3O)cc1 [D76, N-Benzyl-4-(1-hydroxy-1,3-dihydro-benzo[c][1,2]oxaborol-5-yloxy)-benzamide]	1000 to 4000	4 to 10	< 1000	1 to 4	< 1000	1000 to 4000	–
O=C(NCc1ccccn1)c1ccc(Oc2ccc3c(c2)COB3O)cc1 [D78, 4-(1-Hydroxy-1,3-dihydro-benzo[c][1,2]oxaborol-5-yloxy)-N-pyridin-2-ylmethyl-benzamide]	1000 to 4000	1 to 4	1000 to 4000	1 to 4	< 1000	1000 to 4000	–
N#Cc1ccc(Oc2ccc3c(c2)COB3O)nc1 [D82, 6-(1-hydroxy-1,3-dihydrobenzo[c][1,2]oxaborol-5-yloxy)nicotinonitrile]	–	1 to 4	< 1000	< 1	< 1000	< 1000	< 1000
N#Cc1ccc(Oc2ccc3c(c2)COB3O)c(F)c1 [D84, 3-fluoro-4-(1-hydroxy-1,3-dihydrobenzo[c][1,2]oxaborol-5-yloxy)benzonitrile]	1000 to 4000	4 to 10	1000 to 4000	1 to 4	< 1000	4000 to 10000	–
Cc1cc(C#N)ccc1Oc1ccc2c(c1)COB2O [D85, 3-methyl-4-(1-hydroxy-1,3-dihydrobenzo[c][1,2]oxaborol-5-yloxy)benzonitrile]	< 1000	< 1	< 1000	1 to 4	< 1000	< 1000	–
COc1ccc(Oc2ccc3c(c2)COB3O)cc1OC [D94, 5-(3,4-dimethoxyphenoxy)benzo[c][1,2]oxaborol-1 (3H)-ol]	1000 to 4000	1 to 4	1000 to 4000	> 10	< 1000	1000 to 4000	–
CS(=O)(=O)c1ccc(Oc2ccc3c(c2)COB3O)cc1 [D103, 5-(4-(methylsulfonyl)phenoxy)benzo[c][1,2]oxaborol-1 (3H)-ol]	1000 to 4000	< 1	< 1000	1 to 4	1000 to 4000	< 1000	–
CC(C)S(=O)(=O)c1ccc(Oc2ccc3c(c2)COB3O)cc1 [D104, 5-(4-(isopropylsulfonyl)phenoxy)benzo[c][1,2]oxaborol-1 (3H)-ol]	1000 to 4000	4 to 10	1000 to 4000	4 to 10	< 1000	1000 to 4000	–
CCS(=O)(=O)c1ccc(Oc2ccc3c(c2)COB3O)cc1 [D105, 5-(4-(ethylsulfonyl)phenoxy)benzo[c][1,2]oxaborol-1 (3H)-ol]	1000 to 4000	4 to 10	1000 to 4000	1 to 4	1000 to 4000	1000 to 4000	–
N#Cc1ccc(NCCO)nc1Oc1ccc2c(c1)COB2O [D106, 2-(1-Hydroxy-1,3-dihydro-benzo[c][1,2]oxaborol-5-yloxy)-6-(2-hydroxy-ethylamino)-nicotinonitrile]	< 1000	< 1	< 1000	4 to 10	< 1000	< 1000	–
COc1nc(Oc2ccc3c(c2)COB3O)ccc1C(N)=O [D112, 6-(1-Hydroxy-1,3-dihydro-benzo[c][1,2]oxaborol-5-yloxy)-2-methoxy-nicotinamide]	< 1000	1 to 4	< 1000	< 1	< 1000	< 1000	–
N#Cc1ccc(Oc2ccc3c(c2)COB3O)nc1NCCOCc1ccccc1 [D113, 2-(2-Benzyloxy-ethylamino)-6-(1-hydroxy-1,3-dihydro-benzo[c][1,2]oxaborol-5-yloxy)-nicotinonitrile]	< 1000	< 1	< 1000	4 to 10	< 1000	< 1000	–
CN(CCO)c1nc(Oc2ccc3c(c2)COB3O)ccc1C#N [D115, 6-(1-Hydroxy-1,3-dihydro-benzo[c][1,2]oxaborol-5-yloxy)-2-[(2-hydroxy-ethyl)-methyl-amino]-nicotinonitrile]	< 1000	< 1	< 1000	4 to 10	< 1000	< 1000	–
COc1nc(Oc2ccc3c(c2)COB3O)ncc1C#N [D116, 2-(1-Hydroxy-1,3-dihydro-benzo[c][1,2]oxaborol-5-yloxy)-4-methoxy-pyrimidine-5-carbonitrile]	< 1000	< 1	< 1000	1 to 4	< 1000	< 1000	–
N#Cc1cnc(Oc2ccc3c(c2)COB3O)cc1OCCOC1CCCCO1 (stereo not drawn) [D118, 6-(1-Hydroxy-1,3-dihydro-benzo[c][1,2]oxaborol-5-yloxy)-4-[2-(tetrahydro-pyran-2-yloxy)-ethoxy]-nicotinonitrile]	< 1000	< 1	< 1000	1 to 4	< 1000	< 1000	–
N#Cc1cnc(Oc2ccc3c(c2)COB3O)cc1OCCO [D119, 6-(1-Hydroxy-1,3-dihydro-benzo[c][1,2]oxaborol-5-yloxy)-4-(2-hydroxy-ethoxy)-nicotinonitrile]	< 1000	< 1	< 1000	< 1	< 1000	< 1000	–
